Among the data in patent US20250115591A1, “NOVEL SULFONAMIDE CARBOXAMIDE COMPOUNDS” (INFLAZOME LIMITED, priority 2017, published 2025) are IC50 values, retold here.

Broadly, the IC50 is the point on the concentration scale where inhibition reaches its midpoint.

Test [1] has as its target T1, NLRP3 (Homo sapiens (Human), UniProt Q96P20). Briefly: THP-1 cells pyroptosis assay (LPS + nigericin, resazurin read-out). It counts as cell-based. To be noted: 1 μg/ml LPS, 5 μM nigericin. The gist of the method:
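LPS-primed (1 μg/ml) human THP-1 cells in serum-free RPMI were exposed to compound (8-point half-log series, top dose as printed "10M") for 3 h at 37 °C, then to nigericin 5 μM for 1 h. Remaining viability was read by resazurin (100 μM, 1-2 h) fluorescence, and IC50 came from 4-parameter variable-slope regression.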
For orientation: Alamar Blue is a resazurin reagent that responds to reducing activity.

For test [2], the target named is T1, NLRP3. Put plainly: Human whole blood IL1β release assay (LPS + nigericin). The class given is cell-based. The settings on record: human whole blood, 1 μg/ml LPS, nigericin, IL-1β release; read-out: HWB IC50. How it is done: For systemic delivery, the ability to inhibit NLRP3 when the compounds are present within the bloodstream is of great importance. For this reason, the NLRP3 inhibitory activity of a number of compounds in human whole blood was investigated in accordance with the following protocol.
Human whole blood in Li-heparin tubes was obtained from healthy donors from a volunteer donor panel. • 1. Plate out 80 μl of whole blood containing 1 μg/ml of LPS in 96-well, clear bottom cell culture plate (Corning #3585) • 2. Add 10 μl compound (8 points half-log dilution with 10 μM top dose) or vehicle (DMSO 0.1% FAC) to the appropriate wells • 3. Incubate for 3 hrs at 37° C., 5% CO2 • 4. Add 10 μl nigericin (Sigma #N7143) ([…]) to all wells • 5. Incubate for 1 hr at 37° C., 5% CO2 • 6. At the end of the incubation period, spin plates at 30×g for 5 mins to pellet cells and remove 20 μl of supernatant and add to 96-well v-bottom plates for IL-1β analysis (note: these plates containing the supernatants can be stored at −80° C. to be analysed at a later date) • 7. IL-1β was measured according to the manufacturer protocol (Perkin Elmer-AlphaLisa IL-Kit A[220F-5000) • 8. IC50 data is fitted to a non-linear regression equation (log inhibitor vs response-variable slope 4-parameters)

The structures appear in SMILES notation. Where a name gives a salt, the structure may show the parent alone.

T1 sequence (Q96P20 whole entry): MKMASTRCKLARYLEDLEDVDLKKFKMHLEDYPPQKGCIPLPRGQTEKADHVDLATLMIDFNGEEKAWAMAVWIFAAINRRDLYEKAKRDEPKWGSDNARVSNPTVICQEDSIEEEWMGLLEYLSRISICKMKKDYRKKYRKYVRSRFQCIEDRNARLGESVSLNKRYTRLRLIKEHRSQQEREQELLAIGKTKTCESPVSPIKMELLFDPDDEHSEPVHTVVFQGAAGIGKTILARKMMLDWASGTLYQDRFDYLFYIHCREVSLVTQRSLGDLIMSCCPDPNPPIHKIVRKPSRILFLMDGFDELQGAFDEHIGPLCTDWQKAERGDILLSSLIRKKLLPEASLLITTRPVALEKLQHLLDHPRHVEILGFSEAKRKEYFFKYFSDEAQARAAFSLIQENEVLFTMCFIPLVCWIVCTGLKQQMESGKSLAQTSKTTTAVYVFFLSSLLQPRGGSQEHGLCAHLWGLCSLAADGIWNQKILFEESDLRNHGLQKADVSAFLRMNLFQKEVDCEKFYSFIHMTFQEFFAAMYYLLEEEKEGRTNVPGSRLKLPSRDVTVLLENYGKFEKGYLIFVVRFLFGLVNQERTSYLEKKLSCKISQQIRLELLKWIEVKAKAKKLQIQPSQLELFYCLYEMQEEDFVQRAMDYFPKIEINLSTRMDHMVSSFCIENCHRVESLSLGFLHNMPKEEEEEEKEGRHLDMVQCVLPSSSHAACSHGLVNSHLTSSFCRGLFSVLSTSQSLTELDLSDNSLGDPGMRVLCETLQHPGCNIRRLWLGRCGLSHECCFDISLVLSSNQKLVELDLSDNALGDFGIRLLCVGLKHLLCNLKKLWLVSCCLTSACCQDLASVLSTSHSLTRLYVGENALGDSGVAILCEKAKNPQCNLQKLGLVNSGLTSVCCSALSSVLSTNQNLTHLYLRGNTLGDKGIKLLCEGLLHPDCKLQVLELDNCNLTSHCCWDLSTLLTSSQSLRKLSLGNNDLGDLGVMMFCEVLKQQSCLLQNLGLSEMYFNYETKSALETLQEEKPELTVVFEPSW

In the case of `O=C(Nc1c2c(cc3c1CCC3)CCC2)NS(=O)(=O)C1CN(CCF)C1` [Example 108, 1-(2-Fluoroethyl)-N-((1,2,3,5,6,7-hexahydro-s-indacen-4-yl)carbamoyl)azetidine-3-sulfonamide, potassium salt], the IC50 on NLRP3 [1] and on NLRP3 [2] was below 1000 nM throughout.
On to `O=C(Nc1c2c(cc3c1CCC3)CCC2)NS(=O)(=O)C1CN(C2CCOC2)C1` (centres unmarked) [Example 121, N-((1,2,3,5,6,7-Hexahydro-s-indacen-4-yl)carbamoyl)-1-(tetrahydrofuran-3-yl)azetidine-3-sulfonamide, potassium salt], for which the IC50 on NLRP3 [1] and at NLRP3 [2] was below 1000 nM each time.
On to `CCC(C)N1CC(S(=O)(=O)NC(=O)Nc2c3c(cc4c2CCC4)CCC3)C1` (centres unmarked) [Example 122, 1-(sec-Butyl)-N-((1,2,3,5,6,7-hexahydro-s-indacen-4-yl)carbamoyl)azetidine-3-sulfonamide, potassium salt], for which the IC50 at NLRP3 [1] and at NLRP3 [2] was below 1000 nM in each case.
As for `CC1(C)CCC1N1CC(S(=O)(=O)NC(=O)Nc2c3c(cc4c2CCC4)CCC3)C1` (centres unmarked) [Example 124, 1-(2,2-Dimethylcyclobutyl)-N-((1,2,3,5,6,7-hexahydro-s-indacen-4-yl)carbamoyl)azetidine-3-sulfonamide, potassium salt], the results for the IC50 at NLRP3 [1] and on NLRP3 [2] were below 1000 nM and 1000 to 10000 nM, respectively.
The like results for `O=C(Nc1c2c(cc3c1CCC3)CCC2)NS(=O)(=O)C1CN(CC2CCC2)C1` [Example 126, 1-(Cyclobutylmethyl)-N-((1,2,3,5,6,7-hexahydro-s-indacen-4-yl)carbamoyl)azetidine-3-sulfonamide, potassium salt] were, in that order, 1000 to 10000 nM and 1000 to 10000 nM.
For `CC(CO)N1CC(S(=O)(=O)NC(=O)Nc2c3c(cc4c2CCC4)CCC3)C1` (centres unmarked) [Example 130, N-((1,2,3,5,6,7-Hexahydro-s-indacen-4-yl)carbamoyl)-1-(1-hydroxypropan-2-yl)azetidine-3-sulfonamide, potassium salt], the IC50 at NLRP3 [1] and on NLRP3 [2] was below 1000 nM throughout.
As for `CC(C(F)F)N1CC(S(=O)(=O)NC(=O)Nc2c3c(cc4c2CCC4)CCC3)C1` (centres unmarked) [Example 131, 1-(1,1-Difluoropropan-2-yl)-N-((1,2,3,5,6,7-hexahydro-s-indacen-4-yl)carbamoyl)azetidine-3-sulfonamide, potassium salt], the figures for the IC50 on NLRP3 [1] and at NLRP3 [2] were below 1000 nM and 1000 to 10000 nM, respectively.
The like results for `C#CCN1CC(S(=O)(=O)NC(=O)Nc2c3c(cc4c2CCC4)CCC3)C1` [Example 133, N-((1,2,3,5,6,7-Hexahydro-s-indacen-4-yl)carbamoyl)-1-(prop-2-yn-1-yl)azetidine-3-sulfonamide, potassium salt] were, in that order, below 1000 nM and below 1000 nM.
Consider `O=C(Nc1c2c(cc3c1CCC3)CCC2)NS(=O)(=O)C1CN(CCCO)C1` [Example 134, N-((1,2,3,5,6,7-Hexahydro-s-indacen-4-yl)carbamoyl)-1-(3-hydroxypropyl)azetidine-3-sulfonamide, potassium salt], for which the results for the IC50 on NLRP3 [1] and at NLRP3 [2] were below 1000 nM and 1000 to 10000 nM, respectively.
The matching figures for `CC(C)(C)CN1CC(S(=O)(=O)NC(=O)Nc2c3c(cc4c2CCC4)CCC3)C1` [Example 135, N-((1,2,3,5,6,7-Hexahydro-s-indacen-4-yl)carbamoyl)-1-neopentylazetidine-3-sulfonamide, potassium salt]: below 1000 nM and 1000 to 10000 nM.
With `CC(O)CN1CC(S(=O)(=O)NC(=O)Nc2c3c(cc4c2CCC4)CCC3)C1` (centres unmarked) [Example 137, N-((1,2,3,5,6,7-Hexahydro-s-indacen-4-yl)carbamoyl)-1-(2-hydroxypropyl)azetidine-3-sulfonamide, potassium salt], the IC50 is below 1000 nM on NLRP3 [1] and 1000 to 10000 nM at NLRP3 [2].
The matching figures for `O=C(Nc1c2c(cc3c1CCC3)CCC2)NS(=O)(=O)C1CN(CCCCO)C1` [Example 138, N-((1,2,3,5,6,7-Hexahydro-s-indacen-4-yl)carbamoyl)-1-(4-hydroxybutyl)azetidine-3-sulfonamide, potassium salt]: below 1000 nM and below 1000 nM.
In the case of `Cn1ccc(CN2CC(S(=O)(=O)NC(=O)Nc3c4c(cc5c3CCC5)CCC4)C2)cc1=O` [Example 141, N-((1,2,3,5,6,7-Hexahydro-s-indacen-4-yl)carbamoyl)-1-((1-methyl-2-oxo-1,2-dihydropyridin-4-yl)methyl)azetidine-3-sulfonamide, potassium salt], the figures for the IC50 on NLRP3 [1] and on NLRP3 [2] were below 1000 nM and 1000 to 10000 nM, respectively.
For the molecule `O=C(Nc1c2c(cc3c1CCC3)CCC2)NS(=O)(=O)C1CN(CC2CCOC2)C1` (centres unmarked) [Example 144, N-((1,2,3,5,6,7-Hexahydro-s-indacen-4-yl)carbamoyl)-1-((tetrahydrofuran-3-yl)methyl)azetidine-3-sulfonamide, potassium salt], the IC50 on NLRP3 [1] was below 1000 nM; at NLRP3 [2] it was 1000 to 10000 nM.
`O=C(Nc1c2c(cc3c1CCC3)CCC2)NS(=O)(=O)C1CN(CC2CCCO2)C1` (centres unmarked) [Example 145, N-((1,2,3,5,6,7-Hexahydro-s-indacen-4-yl)carbamoyl)-1-((tetrahydrofuran-2-yl)methyl)azetidine-3-sulfonamide, potassium salt]: the IC50 is below 1000 nM at NLRP3 [1] and 1000 to 10000 nM at NLRP3 [2].
Consider `O=C(Nc1c2c(cc3c1CCC3)CCC2)NS(=O)(=O)C1CN(CCO)C1` [Example 152, 1-(2-Hydroxyethyl)-N-((1,2,3,5,6,7-hexahydro-s-indacen-4-yl)carbamoyl)azetidine-3-sulfonamide, potassium salt], for which the IC50 at NLRP3 [1] and on NLRP3 [2] was below 1000 nM each time.
Consider `COc1cc(-c2cc(F)cc(C(C)C)c2NC(=O)NS(=O)(=O)C2CN(C(C)C)C2)ccn1` [Example 158, N-((4-Fluoro-2-isopropyl-6-(2-methoxypyridin-4-yl)phenyl)carbamoyl)-1-isopropylazetidine-3-sulfonamide], for which the IC50 at NLRP3 [1] and on NLRP3 [2] was below 1000 nM throughout.
In the case of `COc1cc(-c2ccc3c(c2NC(=O)NS(=O)(=O)C2CN(C(C)C)C2)CCC3)ccn1` [Example 159, 1-Isopropyl-N-((5-(2-methoxypyridin-4-yl)-2,3-dihydro-1H-inden-4-yl)carbamoyl)azetidine-3-sulfonamide], the IC50 at NLRP3 [1] and on NLRP3 [2] was below 1000 nM throughout.
`COc1cc(-c2cc(F)cc(C(C)C)c2NC(=O)NS(=O)(=O)C2CN(C3CCC3)C2)ccn1` [Example 162, 1-Cyclobutyl-N-((4-fluoro-2-isopropyl-6-(2-methoxypyridin-4-yl)phenyl)carbamoyl)azetidine-3-sulfonamide]: the IC50 on NLRP3 [1] and on NLRP3 [2] was below 1000 nM throughout.
As to `COc1cc(-c2ccc3c(c2NC(=O)NS(=O)(=O)C2CN(C4CCC4)C2)CCC3)ccn1` [Example 163, 1-Cyclobutyl-N-((5-(2-methoxypyridin-4-yl)-2,3-dihydro-1H-inden-4-yl)carbamoyl)azetidine-3-sulfonamide], the IC50 at NLRP3 [1] and at NLRP3 [2] was below 1000 nM throughout.
For the molecule `CCN1CC(S(=O)(=O)NC(=O)Nc2c(-c3ccnc(OC)c3)ccc3c2CCC3)C1` [Example 167, 1-Ethyl-N-((5-(2-methoxypyridin-4-yl)-2,3-dihydro-1H-inden-4-yl)carbamoyl)azetidine-3-sulfonamide], the IC50 on NLRP3 [1] and on NLRP3 [2] was below 1000 nM in each case.
`COc1cc(-c2ccc3c(c2NC(=O)NS(=O)(=O)C2CN(Cc4cccnc4)C2)CCC3)ccn1` [Example 170, N-((5-(2-Methoxypyridin-4-yl)-2,3-dihydro-1H-inden-4-yl)carbamoyl)-1-(pyridin-3-ylmethyl)azetidine-3-sulfonamide]: the IC50 on NLRP3 [1] and on NLRP3 [2] was 1000 to 10000 nM throughout.
Regarding `CC(C)c1cc(F)cc(-c2ccnc(C#N)c2)c1NC(=O)NS(=O)(=O)c1ccc(=O)n(C(C)C)c1` [Example 172, N-((2-(2-cyanopyridin-4-yl)-4-fluoro-6-isopropylphenyl)carbamoyl)-1-isopropyl-6-oxo-1,6-dihydropyridine-3-sulfonamide], the IC50 on NLRP3 [1] and on NLRP3 [2] was below 1000 nM each time.
Turning to `COc1cc(-c2cc(F)cc(C(C)C)c2NC(=O)NS(=O)(=O)c2ccc(=O)n(C(C)C)c2)ccn1` [Example 173, N-((4-Fluoro-2-isopropyl-6-(2-methoxypyridin-4-yl)phenyl)carbamoyl)-1-isopropyl-6-oxo-1,6-dihydropyridine-3-sulfonamide], the IC50 at NLRP3 [1] and on NLRP3 [2] was below 1000 nM each time.
In the case of `CC(C)n1cc(S(=O)(=O)NC(=O)Nc2c3c(cc4c2CCC4)CCC3)ncc1=O` [Example 181, N-((1,2,3,5,6,7-Hexahydro-s-indacen-4-yl)carbamoyl)-4-isopropyl-5-oxo-4,5-dihydropyrazine-2-sulfonamide, sodium salt], the IC50 on NLRP3 [1] and at NLRP3 [2] was below 1000 nM in each case.
